Measurements as given in ChEMBL document CHEMBL1125343, “Molecular yardsticks. Rigid probes to define the spatial dimensions of the benzodiazepine receptor binding site” (J Med Chem, 1992).
Activity calls are given as the source filed them. The calls are words filed in the database; no cut-off is given here.

How the values were obtained:
[1] = molecular target: GABA-A receptor; anion channel; experiment: In vitro affinity at the Benzodiazepine receptor (BzR) is its ability to displace [3H]diazepam from BzR.; type: protein-complex assay, Rattus norvegicus
[2] = system: Monkey; experiment: Anxiogenic activity in vivo in Rhesus monkeys; Potent activity; type: functional, organism-based; settings: Cercopithecidae
[3] = Solubility in water.; type: physicochemical; settings: read-out: S
[4] = system: Mus musculus; experiment: Dose required to induce convulsions in 50% of the mice that had been previously treated by a subconvulsant dose of pentylenetetrazole (40 mg/kg)
[5] = system: Rattus norvegicus; experiment: In vivo proconvulsant activity in rats; type: functional
[6] = system: Mus musculus; experiment: In vivo dose required to induce convulsions in 50% of the mice previously treated by a subconvulsant dose of pentylenetetrazole (40 mg/kg)
[7] = organism: Rattus norvegicus; experiment: Dose required to induce convulsions in 50% of the rats; type: functional
[8] = system: Monkey; experiment: Anxiogenic activity in vivo in Rhesus monkeys; type: functional; settings: Cercopithecidae, in Macaca mulatta
[9] = system: Mus musculus; experiment: Dose required to induce convulsions in 50% of the mice.(In vivo proconvulsant activity.)
[10] = system: Mus musculus; experiment: Dose required to induce convulsions in 50% of the mice.(In vivo convulsant activity.)

IC50 [1] [nM] | solubility [3] [µg/mL] | Structure (SMILES) | other results
39 |  | c1ccc2c(c1)[nH]c1cnc3c(nc4ccccn43)c12 | 
24 | 12000 | CCOc1cc2c3ccccc3nc-2c[nH]1.Cl | ED50 [2]: Active; ED50 [4]: 7 mg/kg; ED50 [5]: 7 mg/kg
10.6 | 7600 | Cl.c1ccc2c(c1)[nH]c1c[nH]c3c4cccnc4nc-3c12 | ED50 [6]: 11 mg/kg
> 2000 |  | c1ccc2c(c1)ccn1c2nc2c3c4ccccc4nc-3c[nH]c21 | 
> 125 |  | c1ccc2c(c1)ccc1c3[nH]cc4nc5ccccc5c-4c3[nH]c21 | 
> 125 |  | c1ccc2c(c1)ccc1[nH]c3c4c5ccccc5nc-4c[nH]c3c12 | 
51.5 | 13000 | Cl.c1ccc2c(c1)[nH]c1c[nH]c3c4ccncc4nc-3c12 | ED50 [6]: 25 mg/kg
 | < 2000 | Cl.c1ccc2c(c1)[nH]c1c2ncc2[nH]c3ccccc3c21 | ED50 [9]: 15.5 mg/kg
> 3000 |  | c1ccc2c(c1)ccc1nc3c4c5ccccc5nc-4c[nH]c3n12 | 
200 |  | c1ccc2c(c1)cnn1c2nc2c3c4ccccc4nc-3c[nH]c21 | 
> 1000 |  | c1ccc2c3c4ncc5[nH]c6ccccc6c5c4nc-3c[nH]c2c1 | 
10.2 | 11000 | Cl.c1cnc2c3[nH]cc4[nH]c5ccccc5c4c-3nc2c1 | 
1 | < 200 | CCc1c(C(=O)OC)[nH]cc2nc3cc(OC)c(OC)cc3c1-2.Cl | ED50 [10]: 4 mg/kg

Structure (SMILES) | IC50 [1] [nM] | solubility [3] [µg/mL] | other results
CCOC(=O)c1cc2c3ccccc3nc-2c[nH]1.Cl |  | 1000 | 
CCOC(=O)c1cc2c(cn1)[nH]c1ccccc12 |  | < 200 | ED50 [7]: 3.2 mg/kg; ED50 [5]: 75 mg/kg; ED50 [8]: 2.5 mg/kg
